# Laboratory results taken from US20120083518A1, “Cancer Treatment Targeting BRCA1-IRIS” (priority 2010, published 2012).
# What was measured:
# Assay type in all cases: cell-based, human
# induced IRIS3 cells = test: TUNEL detection (FragEL DNA fragmentation kit)
# Procedure: (§1) HME and induced IRIS3 (72 h) cells were exposed to 40 mJ/cm^2 UVC, 10 μM of etoposide or 15 μM of H2O2 in the presence or absence of 10 μM of SB203580, p53 siRNA or 10 μM of CCT007093.
# (§2) The Flurescein FragEL DNA Fragmentation Detection Kit was used according to the supplier (Calbiochem) protocol.
# HME cells = test: TUNEL detection (FragEL DNA fragmentation kit)
# Procedure: as §1, §2
# [1] = test system: p38MAPK phosphorylation in HME cells; test: Immunoblot of p38MAPK phosphorylation; settings: 10 μM CCT007093
# Procedure: (§3) CCT007093 is a novel WIP1 specific inhibitor. The HME and induced IRIS3 (72 h) cells were untreated or exposed to 20 mJ/cm^2 UVC, 10 μM of CCT007093 or both. BRCA1-IRIS, p53 and WIP1 level was low in HME and high in IRIS3 cells, whereas p38MAPK was high in both the cell lines. These levels were not changed in both cell lines following any of the treatments (FIG. 9H). p-p53 level was low in untreated HME and IRIS3 cells (FIG. 9H, lanes 1 and 5), rose after UVC treatment, decreased after CCT007093 treatment and increased in UVC+CCT007093-treated HME cells (FIG. 9H) Importantly, in induced IRIS3 cells, p-p53 level decreased after UVC treatment, increased after CCT007093 treatment and remained high after the combined treatment (FIG. 9H).
# (§4) BT474, MCF7 and SKBR3 cells were maintained in Roswell Park Memorial Institute medium (Invitrogen) supplemented with 10% fetal bovine serum and antibiotics. SOAS2 and HEK293T cells were maintained Dulbecco's Modified Eagle medium (Invitrogen) with 10% serum. HME maintenance was as described in ElShamy and Livingston, 2004. Cancer or HME cells were at 80% confluence in 10 cm^2 dishes and were treated with UVC (different doses), SB203580 (10 μM, Sigma, St. Louis, Mo., USA), etoposide (10 μM, Sigma) and H2O2 (15 μM, Sigma) or CCT007093 (10 μM, Santa Cruz, Santa Cruz, Calif., USA), and these drugs were added directly to the cells.
# [2] = test system: p53 phosphorylation in HME cells; test: Immunoblot of p53 phosphorylation; settings: 10 μM CCT007093 alone
# Procedure: as §3, §4
# [3] = test system: p53 phosphorylation in induced IRIS3 cells; test: Immunoblot of p53 phosphorylation (p-p53/p53, ImageJ)
# Procedure: (§5) IRIS 1 and IRIS3 induced for 72 h were exposed to 0, 10, 20 or 40 mJ/cm^2 of UVC irradiation. After 24 h, compared with IRIS1, induced IRIS3 cells treated with 0 mJ/cm^2 UVC had higher levels of BRCA1-IRIS, p53, WIP1, p-p38MAPK, yet similar levels of p38MAPK and p-p53 (FIG. 9F). In 10 and 20 mJ/cm^2 treated cells, BRCA1-IRIS, p53 and WIP1 levels remained higher in induced IRIS3 and no change in p38MAPK level (FIG. 9F). […] Finally, in 40 mJ/cm^2 UVC-treated cells, BRCA1-IRIS, p53 and WIP1 levels were still detectable in induced IRIS3 but not in IRIS1 cells (FIG. 9F). In contrast, IRIS1 and not induced IRIS3 cells contained detectable levels of p-p53 and p-p38MAPK (FIG. 9F). The intensity of the p53, p-p53, p38MAPK and p-p38MAPK bands in FIG. 9F were measured using ImageJ program (NIH) to estimate the level of p53 and p38MAPK activation in BRCA1-IRIS overexpressing cells. About 50% of p53 in IRIS1 cells was phosphorylated before UVC exposure that rose to 80-100% after the exposure (FIG. 9G). In contrast, only 20% of p53 was phosphorylated in induced IRIS3 cells before UVC dropping to <10% after UVC (FIG. 9G). p38MAPK phosphorylation was undetectable in IRIS1 cells before UVC exposure but rose to ˜100% after UVC (FIG. 9G). In induced IRIS3 cells, the 100% of p38MAPK phosphorylated before UVC exposure dropped to <20% after UVC exposure (FIG. 9G). […]
# [4] = test system: p38MAPK phosphorylation in induced IRIS3 cells; test: Immunoblot of p38MAPK phosphorylation (p-p38MAPK/p38MAPK, ImageJ)
# Procedure: as §5
# MCF7 cells = test: LIVE/DEAD cell death assay; settings: for level of cell death: MCF7, all conditions, 10 μM etoposide or 15 μM H2O2
# Procedure: (§6) MCF7 and SKBR3 cell lines transfected with luciferase or BRCA1-IRIS siRNAs in the presence or absence of p38MAPK inhibitor (SB203580) or p53 siRNA were exposed to 40 mJ/cm^2 UVC, 10 μM etoposide or 15 μM H2O2. […] This was confirmed by phase-contrast cell counting (FIG. 9I) and trypan blue exclusion using ViCell (Beckman Coulter, Fullerton, Calif., USA, FIG. 9J).
# (§7) The LIVE/DEAD Fixable Dead Cell Stain Kit was used according to the supplier (Invitrogen) protocol.
# SKBR3 cells = test: LIVE/DEAD cell death assay; settings: for level of cell death: SKBR3, all conditions, 10 μM etoposide or 15 μM H2O2
# Procedure: as §6, §7
# HOSE/AKT3 cells = test: MTT cell viability after cisplatin; settings: HOSE/AKT3, cisplatin 48 h
# Source text: (§8) MTT and activated caspases 3 and 7 assays. Done using the Cell Titer 96® AQueous One Solution Cell Proliferation Assay (#G3580, Promega) Caspase-Glo 3/7 Assay (#G8091, Promega), respectively as per manufacturer's instructions. Measurements were obtained using optical at 490 nm. Each experiment was done in 8 samples and the whole experiment was repeated 3 separate times.
# HOSE/AKT2 cells = test: MTT cell viability after cisplatin; settings: HOSE/AKT2, cisplatin 48 h
# Source text: as §8
# HOSE/AKT1 cells = test: MTT cell viability after cisplatin; settings: HOSE/AKT1, cisplatin 48 h
# Source text: as §8
# HOSE/survivin cells = test: MTT cell viability after cisplatin; settings: cisplatin 48 h
# Source text: as §8
# HOSE/IRIS cells = test: MTT cell viability after cisplatin; settings: cisplatin 48 h
# Source text: as §8
# HOSE/vector cells = test: MTT cell viability after cisplatin; settings: cisplatin 48 h
# Source text: as §8
# [5] = test system: BRCA1-IRIS, AKT and survivin expression in HOSE cells; test: Immunoblot of BRCA1-IRIS, AKT and survivin after cisplatin; settings: 24 h
# Source text: (§9) Immunoblotting. […] Bcl-2 (clone 124; Dako Diagnostics AG), Bcl-xL (Transduction Laboratories), actin (Ab-1, CP01, Oncogene) and phospho-Survivin (T34, Novus Biologicals). Mouse antibody against BRCA1-IRIS was generated in our laboratory.
# Ovarian cancer cells expressing high level of survivin usually are cisplatin-resistant.
# [6] = test system: BRCA1-IRIS, AKT and survivin expression in SK-OV-3 cells; test: Immunoblot of BRCA1-IRIS, AKT, p-AKT and survivin; settings: SK-OV-3, cisplatin 35 μM 24 h alone
# Procedure: as §9
# BRCA1-IRIS-induced survivin expression is partially AKT-dependent. AKT (siRNA silences AKT1 and AKT2), BRCA1-IRIS, survivin or AKT and BRCA1-IRIS were silenced in SK-OV-3 cells (endogenously overexpressing all proteins, see FIG. 1B) for 72 h. […] Survivin silencing had no effect on BRCA1-IRIS or AKTs the expression (FIG. 2G). Identical results were obtained using MCAS cell line.
# (§10) BRCA1-IRIS overexpression-induced survivin expression is partially PI3′K/AKT-independent. To study this further, MCAS or SK-OV-3 cells were exposed to the PI3′K inhibitor, LY294002 for 24 h or were transfected with BRCA1-IRIS siRNA for 48 h before they were exposed to LY294002 and left for another 24 h. […] Indeed, LY294002 decreased survivin expression in HOSE/vector cells but had little effect in HOSE/IRIS cells (FIG. 3B).
# (§11) BRCA1-IRIS downregulation sensitizes ovarian cancer cell lines to cisplatin-induced survivin downregulation and cell death.
# [7] = test system: AKT and survivin expression in MCAS cells; test: Immunoblot of AKT, p-AKT and survivin; settings: cisplatin 35 μM 24 h alone
# Procedure: as §9, §10, §11
# [8] = test system: AKT1, AKT2 and survivin expression in OVCAR-5 cells; test: Immunoblot of AKT1, AKT2 and survivin; settings: OVCAR-5, cisplatin 35 μM 24 h alone
# Source text: as §9, §11
# MCAS cells = test: MTT cell viability after cisplatin; settings: cisplatin 48 h
# Procedure: as §8, with “times. […] As expected, low viability and high level of active caspase3/7 were detected in IGROV-1 (FIG. 5C), showing an IC50 of ˜5 μM.” for “times.”
# OVCAR-5 cells = test: MTT cell viability after cisplatin; settings: OVCAR-5, cisplatin 48 h
# Procedure: as §8, with “times. […] As expected, low viability and high level of active caspase3/7 were detected in IGROV-1 (FIG. 5C), showing an IC50 of ˜5 μM.” for “times.”
# IGROV-1 cells = test: MTT cell viability after cisplatin; settings: IGROV-1, cisplatin 48 h
# Procedure: as §8, with “times. […] As expected, low viability and high level of active caspase3/7 were detected in IGROV-1 (FIG. 5C), showing an IC50 of ˜5 μM.” for “times.”
# SK-OV-3 cells = test: MTT cell viability after cisplatin; settings: SK-OV-3, cisplatin 48 h
# Procedure: as §8, with “times. […] As expected, low viability and high level of active caspase3/7 were detected in IGROV-1 (FIG. 5C), showing an IC50 of ˜5 μM.” for “times.”
# [9] = test system: p53 and p38MAPK phosphorylation in induced IRIS2 cells; test: Immunoblot of p-p53 and p-p38MAPK after etoposide
# Procedure: (§12) Induced IRIS2 on the other hand maintained high level of BRCA1-IRIS, p53 and WIP1 even in the presence of 50 μM of etoposide and had similar level of total p38MAPK (FIG. 8I). Etoposide treatment triggered p53 phosphorylation in IRIS1 but not in the induced IRIS2 cells (Supplementary FIG. 8I).
# [10] = test system: p53 and p38MAPK phosphorylation in IRIS1 cells; test: Immunoblot of p-p53 and p-p38MAPK after etoposide
# Procedure: as §12
# [11] = induced IRIS3, 20 mJ/cm^2 UVC in presence of 10 μM CCT007093
# [12] = induced IRIS3, 10 μM etoposide or 15 μM H2O2
# [13] = HME, 10 μM etoposide or 15 μM H2O2
compound,measurement,setting,value
O=C1/C(=C/c2cccs2)CC/C1=C\c1cccs1 [CCT007093],number of TUNEL+ cells,"induced IRIS3 cells; induced IRIS3, 10 μM CCT007093, no stress treatment",not
same,number of TUNEL+ cells,"induced IRIS3 cells; induced IRIS3 under UVC, etoposide or H2O2, 10 μM CCT007093 vs vehicle",significantly increased
same,number of TUNEL+ cells,"HME cells; HME under UVC, etoposide or H2O2, 10 μM CCT007093 vs vehicle",not
same,number of TUNEL+ cells,"HME cells; HME, 10 μM CCT007093, no stress treatment",increased slightly yet significantly
same,p-p38MAPK level,[1],increased
same,p-p53 level,[2],decreased
same,p-p53 level,"[3]; induced IRIS3, 10 μM CCT007093 alone",increased
same,p53 phosphorylated (p-p53/p53 ratio),[3]; [11],~75%
same,p-p38MAPK level,"[4]; induced IRIS3, 10 μM CCT007093 alone or with UVC",remained high
same,p38MAPK phosphorylated (p-p38MAPK/p38MAPK ratio),[4]; [11],~55%
OO [H2O2],number of TUNEL+ cells,induced IRIS3 cells; [12],only modestly increasing
same,number of TUNEL+ cells,HME cells; [13],markedly increased
same,level of cell death,MCF7 cells,increased
same,level of cell death,SKBR3 cells,increased
C[S+]([O-])c1ccc(-c2nc(-c3ccncc3)c(-c3ccc(F)cc3)[nH]2)cc1 (centres unmarked) [SB203580],number of TUNEL+ cells,"induced IRIS3 cells; induced IRIS3 under UVC, etoposide or H2O2, plus 10 μM SB203580 or p53 siRNA",stayed the same
same,number of TUNEL+ cells,"HME cells; HME under UVC, etoposide or H2O2, plus 10 μM SB203580 or p53 siRNA",significantly reduced
same,dead cells induced by BRCA1-IRIS silencing,"MCF7 cells; MCF7, BRCA1-IRIS silenced plus SB203580 or p53 siRNA",significantly reduced
same,dead cells induced by BRCA1-IRIS silencing,"SKBR3 cells; SKBR3, BRCA1-IRIS silenced plus SB203580 or p53 siRNA",significantly reduced
N.N.[Cl][Pt][Cl] [cisplatin],IC50,HOSE/AKT3 cells,15 to 20 µM
same,IC50,HOSE/AKT2 cells,~75 µM
same,IC50,HOSE/AKT1 cells,~75 µM
same,IC50,HOSE/survivin cells,~75 µM
same,IC50,HOSE/IRIS cells,~75 µM
same,IC50,HOSE/vector cells,15 to 20 µM
same,"BRCA1-IRIS, AKT and survivin expression",[5]; high concentrations cisplatin (>50 μM),abolished
same,"BRCA1-IRIS, AKT and survivin expression",[5]; low concentrations cisplatin (≦50 μM),triggered
same,"expression of AKT1, AKT2 and survivin",[6],modestly decreased
same,"expression of AKT1, AKT2 and survivin",[7],modestly decreased
same,"expression of AKT1, AKT2 and survivin",[8],modestly decreased
same,IC50,MCAS cells,~40 µM
same,IC50,OVCAR-5 cells,~25 µM
same,IC50,IGROV-1 cells,~5 µM
same,IC50,SK-OV-3 cells,~40 µM
COc1cc([C@@H]2c3cc4c(cc3[C@@H](O[C@@H]3O[C@@H]5CO[C@@H](C)O[C@H]5[C@H](O)[C@H]3O)[C@H]3COC(=O)[C@H]23)OCO4)cc(OC)c1O [etoposide],number of TUNEL+ cells,induced IRIS3 cells; [12],only modestly increasing
same,number of TUNEL+ cells,HME cells; [13],markedly increased
same,level of cell death,MCF7 cells,increased
same,level of cell death,SKBR3 cells,increased
same,p-p38MAPK level,"[9]; induced IRIS2, after etoposide treatment",sharply dropped
same,p53 phosphorylation,"[9]; induced IRIS2, etoposide 5, 10 or 50 μM, 24 h",not
same,p-p38MAPK level,"[10]; IRIS1, after etoposide treatment",increased significantly
same,p53 phosphorylation,"[10]; IRIS1, etoposide 5, 10 or 50 μM, 24 h",triggered
